Assay results as given in ChEMBL document CHEMBL1201862, “PubChem BioAssay data set” (2004).
Activity calls are given as the source filed them.

How the values were obtained:
[1] = target: Troponin, cardiac muscle (Homo sapiens, UniProt P19429+P45379+P63316); test: Fluorescence-based biochemical high throughput dose response assay for activators of the calcium sensitivity of cardiac Regulated Thin Filaments (RTF). [Related pubchem assays (depositor defined):AID493008, AID493018, AID504382, AID504383]; format: protein-complex assay
[2] = test system: BJ; test: BJ-TERT fibroblast viability loss – cell-based, RAS-independent, luminescence, dose response (AID 1933); format: functional; conditions: Homo sapiens
[3] = test system: HEK293; test: NOD2 signaling inhibitors in MDP-stimulated cells, cell-based, uHTS, luminescence (AID 2001); format: functional; conditions: Homo sapiens
[4] = test system: HEK293; test: inhibition of NOD1-driven NF-kB reporter – cell-based, luminescence, uHTS, primary screen (AID 1578); format: functional; conditions: Homo sapiens
[5] = test system: HEK293; test: cells; format: functional, cell-based; conditions: Homo sapiens
[6] = test system: HEK293; test: cells; format: functional, cell-based; conditions: Homo sapiens; remark: listed apart in the source
[7] = target: T1, Microphthalmia-associated transcription factor (Homo sapiens, UniProt O75030); test: reducers of TRPM1 reporter luminescence, concentration series – cell-based, SK-MEL-5, cherry-picked, set 3, MITF inhibitor project, dose response (AID 493073); format: functional;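 also: SK-MEL-5 melanoma cells with luciferase driven by the MITF target TRPM1 promoter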
T1 sequence (O75030 whole entry): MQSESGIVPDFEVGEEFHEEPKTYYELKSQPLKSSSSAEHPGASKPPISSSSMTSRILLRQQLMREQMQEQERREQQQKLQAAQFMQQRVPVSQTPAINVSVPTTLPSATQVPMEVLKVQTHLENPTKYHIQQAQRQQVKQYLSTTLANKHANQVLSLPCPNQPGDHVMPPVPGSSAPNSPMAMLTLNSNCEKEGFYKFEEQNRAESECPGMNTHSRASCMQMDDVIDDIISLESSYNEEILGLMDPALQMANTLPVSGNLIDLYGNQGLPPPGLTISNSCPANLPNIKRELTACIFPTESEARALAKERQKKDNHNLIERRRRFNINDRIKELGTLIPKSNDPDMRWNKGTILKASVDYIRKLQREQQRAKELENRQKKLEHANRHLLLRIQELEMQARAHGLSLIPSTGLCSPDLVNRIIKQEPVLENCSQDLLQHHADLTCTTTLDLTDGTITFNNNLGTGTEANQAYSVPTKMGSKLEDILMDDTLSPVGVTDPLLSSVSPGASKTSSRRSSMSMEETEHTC

[8] = target: T2, Protein RecA (Mycobacterium tuberculosis, UniProt P9WHJ3); test: Fluorescence Cell-Free Homogeneous Dose Retest to Identify Inhibitors of RecA-Intein Splicing Activity. [Related pubchem assays (depositor defined):AID2097, AID2223, AID489010, AID492950]; format: functional
T2 sequence (P9WHJ3 whole entry): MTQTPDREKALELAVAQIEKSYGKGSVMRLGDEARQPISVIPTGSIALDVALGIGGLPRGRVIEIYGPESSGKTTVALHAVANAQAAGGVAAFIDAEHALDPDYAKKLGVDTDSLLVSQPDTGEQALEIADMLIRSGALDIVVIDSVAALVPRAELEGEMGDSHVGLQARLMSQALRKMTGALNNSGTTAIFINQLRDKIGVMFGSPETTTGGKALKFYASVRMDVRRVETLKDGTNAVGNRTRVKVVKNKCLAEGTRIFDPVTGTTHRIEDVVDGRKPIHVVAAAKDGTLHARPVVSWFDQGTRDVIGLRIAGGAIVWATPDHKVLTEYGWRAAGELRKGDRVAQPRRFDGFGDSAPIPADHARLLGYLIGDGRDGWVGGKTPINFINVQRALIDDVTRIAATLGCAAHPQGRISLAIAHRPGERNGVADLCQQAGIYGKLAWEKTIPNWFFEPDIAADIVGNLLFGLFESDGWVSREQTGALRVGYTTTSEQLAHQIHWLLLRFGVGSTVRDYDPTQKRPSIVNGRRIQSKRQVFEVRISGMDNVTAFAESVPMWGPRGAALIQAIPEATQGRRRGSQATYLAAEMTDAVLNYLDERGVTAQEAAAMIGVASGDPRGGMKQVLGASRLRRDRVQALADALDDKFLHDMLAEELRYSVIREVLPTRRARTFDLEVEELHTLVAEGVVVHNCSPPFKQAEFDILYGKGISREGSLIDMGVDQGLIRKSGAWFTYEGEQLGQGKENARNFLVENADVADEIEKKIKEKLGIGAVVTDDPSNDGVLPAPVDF

[9] = test system: BJ; test: BJ-TERT-LT-ST fibroblast viability loss – cell-based, RAS-independent, luminescence, dose response (AID 1935); format: functional; conditions: Homo sapiens;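 also: BJ fibroblasts immortalized with TERT plus LT and ST oncogenes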
[10] = target: T3, Replicative DNA helicase DnaB (Mycobacterium tuberculosis, UniProt P9WMR3); test: DnaB intein splicing inhibitors, dose response, biochemical, cell-free fluorescence (AID 449749); format: functional
T3 sequence (P9WMR3 whole entry): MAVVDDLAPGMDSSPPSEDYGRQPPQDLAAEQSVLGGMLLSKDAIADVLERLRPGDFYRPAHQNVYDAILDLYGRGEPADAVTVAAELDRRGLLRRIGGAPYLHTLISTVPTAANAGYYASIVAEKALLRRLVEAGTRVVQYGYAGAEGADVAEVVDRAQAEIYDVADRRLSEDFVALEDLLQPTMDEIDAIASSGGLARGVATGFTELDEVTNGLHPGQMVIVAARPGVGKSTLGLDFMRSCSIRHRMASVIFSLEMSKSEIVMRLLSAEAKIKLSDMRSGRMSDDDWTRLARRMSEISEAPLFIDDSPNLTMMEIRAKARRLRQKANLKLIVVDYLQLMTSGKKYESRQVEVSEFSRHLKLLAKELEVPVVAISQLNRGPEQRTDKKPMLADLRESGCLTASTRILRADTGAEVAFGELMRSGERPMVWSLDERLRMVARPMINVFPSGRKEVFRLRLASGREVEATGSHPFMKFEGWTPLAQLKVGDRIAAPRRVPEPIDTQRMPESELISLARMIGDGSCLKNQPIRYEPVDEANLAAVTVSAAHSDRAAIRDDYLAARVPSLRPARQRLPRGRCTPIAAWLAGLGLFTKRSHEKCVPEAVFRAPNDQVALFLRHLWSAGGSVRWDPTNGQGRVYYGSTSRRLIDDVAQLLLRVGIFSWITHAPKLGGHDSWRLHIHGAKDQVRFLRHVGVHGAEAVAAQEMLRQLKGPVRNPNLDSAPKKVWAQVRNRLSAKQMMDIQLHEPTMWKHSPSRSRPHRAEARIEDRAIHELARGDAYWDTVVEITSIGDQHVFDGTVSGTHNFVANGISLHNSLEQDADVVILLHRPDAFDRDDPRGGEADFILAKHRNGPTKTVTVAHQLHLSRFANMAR

[11] = test system: BJ; test: cells; format: functional, cell-based; conditions: Homo sapiens
[12] = test system: HEK293; test: cells; format: functional, cell-based; conditions: Homo sapiens; remark: listed apart in the source
[13] = DRD fibroblast viability loss – cell-based, non-viral oncogenic, luminescence, dose response (AID 1934); format: functional; conditions: Homo sapiens
[14] = target: Nucleotide-binding oligomerization domain-containing protein 2 (Homo sapiens, UniProt Q9HC29); test: inhibition of NOD2-driven NF-kB reporter – cell-based, luminescence, uHTS, HEK293 (AID 1566); format: functional
[15] = test system: H9c2; test: cells; format: functional, cell-based; conditions: Rattus norvegicus, H9c2, Myocardium;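 also: confirmatory concentration-response retest of ultra-high-throughput screening hits for modulation of myocardial damage; cell death induced by hydrogen peroxide oxidative stress; compound pretreatment for 60 min then peroxide exposure for 2 h; potency is for protecting the cells against peroxide damage rather than for killing them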
[16] = test system: Streptococcus; test: GAS UMAA2166 growth inhibition – luminescence, BacTiterGlo, counter-screen for streptokinase expression inhibitor project, dose response (AID 1915); format: functional, organism-based;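 also: potency for reduction of bacterial viability or growth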
[17] = test system: Streptococcus sp. 'group A'; test: Streptococcus pyogenes SK(-)GAS viability under kanamycin – luminescence, BacTiterGlo, confirmation, counter-screen for streptokinase expression inhibitor project, dose response (AID 1900); format: functional, organism-based
[18] = test system: INS1; test: INS-1E survival protection against cytokine death – cell-based, luminescence, retest, dose response (AID 449756); format: functional; conditions: Rattus norvegicus;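 also: cell death triggered by IL-1 beta plus TNF-alpha plus IFN-gamma mixture; protective hits raise ATP signal compared with cytokine alone wells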
[19] = target: T4, Insulin-degrading enzyme (Homo sapiens, UniProt P14735); test: cellular IDE activation of Abeta substrate cleavage – fluorescence polarization, HEK cells, dose response (AID 588439); format: functional, cell-based
T4 sequence (P14735 whole entry): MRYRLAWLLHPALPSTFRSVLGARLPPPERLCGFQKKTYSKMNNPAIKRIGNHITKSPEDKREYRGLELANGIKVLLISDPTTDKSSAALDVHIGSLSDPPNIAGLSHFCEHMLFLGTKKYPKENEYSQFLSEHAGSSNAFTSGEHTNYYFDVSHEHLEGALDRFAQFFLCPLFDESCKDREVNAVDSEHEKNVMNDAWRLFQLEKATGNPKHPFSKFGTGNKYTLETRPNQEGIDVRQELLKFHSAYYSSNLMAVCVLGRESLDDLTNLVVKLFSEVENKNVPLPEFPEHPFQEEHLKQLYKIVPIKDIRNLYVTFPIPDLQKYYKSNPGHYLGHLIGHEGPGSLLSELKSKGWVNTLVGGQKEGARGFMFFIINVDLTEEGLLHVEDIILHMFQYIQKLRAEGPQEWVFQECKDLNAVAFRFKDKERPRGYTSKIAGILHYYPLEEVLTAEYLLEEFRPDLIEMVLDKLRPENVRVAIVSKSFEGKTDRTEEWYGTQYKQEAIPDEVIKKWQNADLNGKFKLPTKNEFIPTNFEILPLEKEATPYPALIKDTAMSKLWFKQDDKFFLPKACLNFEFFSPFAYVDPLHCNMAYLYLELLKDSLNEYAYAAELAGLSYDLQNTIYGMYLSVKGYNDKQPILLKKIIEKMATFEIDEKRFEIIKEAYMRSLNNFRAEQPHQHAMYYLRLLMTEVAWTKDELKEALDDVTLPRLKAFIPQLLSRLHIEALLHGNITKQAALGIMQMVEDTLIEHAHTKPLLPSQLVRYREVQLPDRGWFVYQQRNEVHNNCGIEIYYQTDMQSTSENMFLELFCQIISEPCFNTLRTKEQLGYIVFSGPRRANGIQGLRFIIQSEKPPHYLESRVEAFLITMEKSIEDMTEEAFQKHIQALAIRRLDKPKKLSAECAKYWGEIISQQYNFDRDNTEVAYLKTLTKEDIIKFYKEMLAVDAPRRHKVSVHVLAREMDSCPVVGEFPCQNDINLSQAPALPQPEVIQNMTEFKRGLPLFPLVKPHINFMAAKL

[20] = target: T5, Kappa-type opioid receptor (Homo sapiens, UniProt P41145); format: functional
[21] = test system: HEK293; test: optical interference in Abeta FP readout, dose response, artefact control for IDE activator project, biochemical, fluorescence polarization (AID 588442); format: functional, cell-based; conditions: Homo sapiens
[22] = target: T5, Kappa-type opioid receptor; format: functional; remark: listed apart in the source
[23] = target: Beta-galactosidase (Escherichia coli, UniProt Q8VNN2); format: functional
[24] = target: T6, Streptokinase A (Streptococcus pyogenes serotype M1, UniProt P10520); test: viability-normalized secreted streptokinase activity reduction – plasminogen activation absorbance, OD405, dose response (AID 1914); format: functional, Streptococcus pyogenes M1 GAS;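 also: secreted streptokinase activity via plasminogen activation per viability signal from cell pellet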
T6 sequence (P10520 whole entry): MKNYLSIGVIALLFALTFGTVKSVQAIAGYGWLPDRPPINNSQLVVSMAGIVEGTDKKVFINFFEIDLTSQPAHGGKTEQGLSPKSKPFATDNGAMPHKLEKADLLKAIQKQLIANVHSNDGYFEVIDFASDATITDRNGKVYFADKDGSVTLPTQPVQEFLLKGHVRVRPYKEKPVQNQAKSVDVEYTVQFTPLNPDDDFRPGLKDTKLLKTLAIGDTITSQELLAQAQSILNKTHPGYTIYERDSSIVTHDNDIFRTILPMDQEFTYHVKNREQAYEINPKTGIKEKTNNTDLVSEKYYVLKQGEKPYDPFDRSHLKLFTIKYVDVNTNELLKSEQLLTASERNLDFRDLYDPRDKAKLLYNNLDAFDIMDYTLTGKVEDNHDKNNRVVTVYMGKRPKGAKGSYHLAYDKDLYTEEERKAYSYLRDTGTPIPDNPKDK

[25] = target: T4, Insulin-degrading enzyme; test: recombinant IDE activation, cell-free – biochemical, fluorescence polarization, counter-screen for IDE activator project, dose response (AID 588681)
[26] = test system: HEK293; test: membrane integrity loss in HEK cells – cell-based, fluorescence, cytotoxicity control for IDE activator project, dose response (AID 588440); format: functional; conditions: Homo sapiens;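 also: cytotoxicity by LDH release measuring loss of membrane integrity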

Compound: O=C(Nc1ccccc1-c1ccccc1)c1ccc(Cl)c([N+](=O)[O-])c1
- EC50 [1]: > 71.5 µM (inactive)

Compound: COCCN(C(=O)CCl)C(C(=O)NC1CCCCC1)c1ccccc1C (centres undefined)
- EC50 [2]: 8.42 µM (active)
- IC50 [3]: 6.74 µM (active)
- EC50 [4]: 4.73 µM (active)
- IC50 [5]: > 20 µM (inactive)
- IC50 [6]: 14.9 µM (active)
- AC50 [7]: 17.8 µM (active)
- EC50 [8]: 1.28 µM (active)
- EC50 [9]: > 150 µM (inconclusive)
- AC50 [10]: 25 µM (active)
- EC50 [11]: 14.4 µM (active)
- IC50 [12]: 6.54 µM (active)
- EC50 [13]: 10.5 µM (active)
- EC50 [14]: > 20 µM (inactive)

Compound: O=C(O)c1ncc(-c2ccccc2)cn1
- EC50 [1]: > 71.5 µM (inactive)

Compound: Cc1nc(N2CCN(c3ccccn3)CC2)c2c(C)c(C(=O)Nc3ccccc3F)sc2n1
- IC50 [15]: > 79 µM (inactive)
- IC50 [3]: 5.23 µM (active)
- EC50 [4]: 12.4 µM (active)
- IC50 [5]: 14.3 µM (active)
- IC50 [6]: > 20 µM (inactive)
- IC50 [12]: 5.78 µM (active)
- EC50 [14]: 3.56 µM (active)

Compound: CCOc1cc(/C=N/Nc2cc(C)nc(-n3nc(C)cc3C)n2)ccc1O
- EC50 [16]: 32.7 µM (active)
- EC50 [17]: 1.67 µM (active)
- AC50 [18]: 0.862 µM (active)
- EC50 [19]: > 54.7 µM (inactive)
- IC50 [20]: > 32 µM
- EC50 [21]: > 54.7 µM (inactive)
- IC50 [22]: > 31.5 µM (inactive)
- EC50 [23]: > 31.5 µM (inactive)
- EC50 [24]: > 150 µM (not active)
- EC50 [25]: > 54.7 µM (inactive)
- IC50 [26]: 32.3 µM (inactive)

Compound: CC(=O)Nc1cc(C(=O)NCc2ccco2)ccc1Sc1ccc(F)cc1
- EC50 [1]: > 71.5 µM (inactive)
